Laboratory results taken from patent US6475479B1, “Terpenes for reducing the effect of pheromone on lepidoptera” (BASF Aktiengesellschaft, priority 1995, dated 2002).

Key:
[1] = tested on: Lobesia males; test: Laboratory wind tunnel preference test with pheromone-lured electric traps; format: in vivo; conditions: cartridges with 30 μl E7,Z9-dodecadien-1-yl acetate 10^-4 g/g silicone oil plus citral 10^-1 g/g silicone oil, relative to standard (pheromone alone) set equal to one
Description: Laboratory Wind Tunnel 4 electric traps up to […] in size were installed in a laboratory wind tunnel. As electric traps, commercially available electric insect capture appliances were rebuilt to give recording lure traps. The fluorescent tube normally responsible for the attractant action was replaced by a scent source. To avoid positional effects, the four traps were […]. The wheel rim was rotated by means of a motor having a speed of two revolutions per hour (once around its own axis and back), so that the traps continuously changed position. […] The number of moths trapped in each case was determined daily. By means of the number of moths trapped in the individual traps, the attractiveness of the particular lure was determined (preference test). The influence of various dilutions of E7,Z9-dodecadien-1-yl acetate was determined by setting the number of moths in the most common trap equal to one; the capturing ability of the other traps was calculated relative to this. […] The recapture rate of the standard was set equal to one and that of the traps with the terpene additive was calculated relative to this.

[2] = tested on: Lobesia males; test: Outdoor wind tunnels over vine rows, simulated mating disruption; format: in vivo
Description: In spring 1994 two outdoor wind tunnels were built over a row of vines in each case in an experimental field of the SLFA Neustadt. These were aluminum scaffoldings 2 m high, 2 m wide and 10 m long.
The front and back were covered with mosquito nets made of cotton (mesh width 1.5×1.5 mm); 50μ thick polyethylene film lay over the entire length.
Air was blown into the interior through a ventilator at the front of the tunnel.
Two traps each were attached at a height of approximately 60 cm in the interior of the two wind tunnels on the ventilator side. The traps were lured with E7,Z9-dodecadien-1-yl acetate. Tunnel 1 remained untreated and served as a control. To simulate a mating disruption situation, 10 filter papers were uniformly distributed at various heights (20-120 cm) in tunnel 2 along the row of grapevines. 1 ml of citral solution in silicone oil with a dilution of 10^−1 g/g was in each case added dropwise to these in order to achieve a uniform concentration of the substance in the interior. A specific number of Lobesia males were in each case set free on the sides of the two wind tunnels opposite to the ventilator sides. After the end of the experiment, the Lobesia males captured in the traps were counted and the recapture rate was determined.

SMILES: CC(C)=CCCC(C)=CC=O [citral]
- inhibition of the recapture rate [1]: 90%
- Recapture rate ([2]; ratio of captured to released Lobesia males, traps lured with E7,Z9-dodecadien-1-yl acetate, 10 filter papers each with 1 ml citral solution 10^-1 g/g in silicone oil in the tunnel): 0.01
- inhibition of the recapture rate ([2]; tunnel 2 (citral, 10 filter papers, 1 ml of 10^-1 g/g in silicone oil) versus untreated control tunnel 1): 94.5%
